Measured values as given in patent US11414387B2, “Oxoacridinyl acetic acid derivatives and methods of use” (Stingthera, Inc., priority 2017, dated 2022).

Target: hSTING-CTD (Homo sapiens (Human), UniProt Q86WV6)
Test: Human STING protein FP competition concentration response assay
Format: binding
Description: A validated STING ligand, such as c-di-GMP, which is labeled with a read-out signal (e.g., a fluorescence signal such as fluorescein), is mixed with STING-CTD (e.g., mouse STING-CTD or human STING-CTD) with or without the presence of a compound of the present application. Changes in the read-out signal are measured (e.g., by fluorescence anisotropy) to determine the binding of the compound to STING-CTD.
Fluorescein labeled c-di-GMP, a validated STING ligand, was mixed with recombinant hSTING-CTD in a homogenous assay format with or without the presence of a compound of the present application (titrated) in PBS in black 384-well plates (10 μL per well). The fluorescence anisotropy was determined on a PerkinElmer EnVisions multi-mode plate reader. The plate can be read immediately after mixing the reagents or after a few hours without change of signals.
• 1) hSTING (Supplier: HDB) • 2) 2′-Fluo-AHC-c-di GMP (BIOLOG #F009) • 3) 2′3′-cGAMP (BIOLOG #C161) • 4) DMXAA (InvivoGen #tlrl-dmx) • 5) DMSO (Sigma, #D5879-100 mL) • 6) 10×PBS(HDB #MCP-020) • 7) Assay plate, 384-well black plate, solid black bottom (Greiner #784076) • 8) Compound dilution intermediate plate, 384 LDV plate (Labcyte #LP-0200) • 9) Liquid handler, ECHO550 (Labcyte) • 10) Liquid handler, Bravo (Aglient) • 11) Reader, Envision (PerkinElmer) • 12) Centrifuge (Eppendorf) • 13) Multichannel Pipette (Raining) • 14) 10 ml Reservoir (Corning) • 15) 15 ml centrifuge tube (Corning) • 16) Adhesive Plate seals (BioRad) Compound Preparation • a) Containers of each compound were centrifuged at 1000 rpm for 5 min. • b) Compounds were dissolved in DMSO at 30 mM. • c) Compounds were sufficiently vortexed, and centrifuged at 1000 rpm for 1 min. • d) 16 uL of the compound solution was transferred into a LDV Compound Plate. • e) 2-fold serial dilutions of the compound solution were made with DMSO, and 14 concentrations were made in the 384-well LDV Compound Plate. • f) The LDV plate was spun at 1000 rpm for 60 sec and sealed with foil (stored at −20° C. if not used immediately). • g) 335 nL of each compound from the LDV Compound Plate was transferred to Assay Plate (ECHO550). Probe Preparation • a) 200 uM probe stock (2′-Fluo-AHC-c-diGMP) was diluted by ddH2O to 6 uM working concentration. • b) 10-12 uL 6 uM working solution of probe was transferred into the LDV plate. • c) 50 nL per well 6 uM working solution of probe was transferred from the LDV plate to each well of the empty Assay Plate (Greiner 784076) by ECHO550 Buffer mode. • d) Probe final concentration was 30 nM when assay system was 10 uL. • e) The Assay Plate was spun at 1000 rpm for 1 min. Compound Addition • a) After the LDV Compound Plate was prepared, 335 nL compound (ECHO550 DMSO mode) was transferred from the LDV Compound Plate into the Assay Plate (Greiner 784076) containing 50 nL probe in each well according to the Assay Plate layout. • b) DMSO final concentration was 3.35% when assay system was 10 uL. • c) The Assay Plate was spun at 1000 rpm for 1 min. Protein Addition • a) Aliquot of hSTING protein was thawed on ice, briefly to generate uniform solution. • b) 55 uM stock protein was diluted in 1×PBS assay buffer to generate 10 uM final solutions. • c) For test compound and ZPE wells, 10 μL per well of 10 uM protein solutions was added into the Assay Plate containing both the probe and test compounds or DMSO using multichannel pipette. • d) For HPE wells, 10 μL/well of 1×PBS assay buffer instead of protein was added into the Assay Plate containing both the probe and DMSO using multichannel pipette. • e) The Assay Plate was spun at 1000 rpm for Imin. • f) The Assay Plate was incubated at r.t. for 10-20 min.
The EnVision plate reader was used to record the FA value of each well immediately after mixing the reagents or after a few hours without change of signals.
The raw data and calculated data (Fluorescence anisotropy (FA)) was exported from the EnVision reader. […]

Chain of hSTING-CTD (Q86WV6 135-379): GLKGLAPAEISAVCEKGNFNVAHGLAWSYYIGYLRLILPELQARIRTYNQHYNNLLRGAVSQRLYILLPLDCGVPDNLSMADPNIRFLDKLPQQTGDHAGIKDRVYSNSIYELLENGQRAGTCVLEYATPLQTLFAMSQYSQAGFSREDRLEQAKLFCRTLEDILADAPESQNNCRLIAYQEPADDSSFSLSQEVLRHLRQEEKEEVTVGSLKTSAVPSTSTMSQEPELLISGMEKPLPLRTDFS

Row | SMILES | IC50
1 | O=C(O)Cn1c2cc(F)ccc2c(=O)c2ccc(Cl)c(Cl)c21 [Compound 30] | > 1000 µM
2 | O=C(O)Cn1c2cccc(F)c2c(=O)c2ccc(Cl)c(Cl)c21 [Compound 31] | 500 to 1000 µM
3 | Cc1cc(Cl)c2c(c1)c(=O)c1ccc(C)cc1n2CC(=O)O [Compound 38] | 500 to 1000 µM
4 | O=C(O)Cn1c2ccccc2c(=O)c2cc(C#CC3CCCCC3)ccc21 [Compound 39] | 100 to 500 µM
5 | O=C(O)Cn1c2ccccc2c(=O)c2cc(CCC3CCCCC3)ccc21 [Compound 40] | < 100 µM
6 | CC(C)c1ccc(-c2ccc3c(c2)c(=O)c2ccccc2n3CC(=O)O)cc1 [Compound 41] | < 100 µM
7 | COc1ccccc1CCc1ccc2c(c1)c(=O)c1ccccc1n2CC(=O)O [Compound 42] | 500 to 1000 µM
8 | COc1cccc(CCc2ccc3c(c2)c(=O)c2ccccc2n3CC(=O)O)c1 [Compound 43] | 500 to 1000 µM
9 | CSc1ccc2c(=O)c3ccc(SC)c(Cl)c3n(CC(=O)O)c2c1 [Compound 46] | > 1000 µM
10 | O=C(O)Cn1c2ccccc2c(=O)c2c(Cl)c(Cl)ccc21 [Compound 48] | > 1000 µM
11 | CCc1cccc2c1c(=O)c1ccc(Cl)c(Cl)c1n2CC(=O)O [Compound 49] | > 1000 µM
12 | O=C(O)Cn1c2ccccc2c(=O)c2ccc(Cl)c(Br)c21 [Compound 51] | 100 to 500 µM

Further lines, results first:

Row | IC50 | SMILES
13 | 100 to 500 µM | O=C(O)Cn1c2ccccc2c(=O)c2ccc(Br)c(Cl)c21 [Compound 52]
14 | 100 to 500 µM | CC(C)c1ccc(-c2cccc3c2c(=O)c2ccc(Cl)c(Cl)c2n3CC(=O)O)cc1 [Compound 54]
15 | 500 to 1000 µM | CC(C)c1cccc2c1c(=O)c1ccc(Cl)c(Cl)c1n2CC(=O)O [Compound 55]
16 | 500 to 1000 µM | O=C(O)Cn1c2ccccc2c(=O)c2c(Cl)ccc(Cl)c21 [Compound 56]
17 | > 1000 µM | O=C(O)Cn1c2ccccc2c(=O)c2cc(Cl)c(Cl)cc21 [Compound 57]
18 | > 1000 µM | O=C(O)Cn1c2ccccc2c(=O)c2cc(Cl)cc(Cl)c21 [Compound 58]
19 | > 1000 µM | Cc1cc2c(=O)c3ccc(Cl)c(Cl)c3n(CC(=O)O)c2cc1N1CCCCC1 [Compound 62]
20 | 100 to 500 µM | Cc1cc2c(=O)c3ccc(Cl)c(Cl)c3n(CC(=O)O)c2cc1N1CCOCC1 [Compound 63]
21 | 100 to 500 µM | Cc1cc2c(=O)c3ccc(Cl)c(Cl)c3n(CC(=O)O)c2cc1N(C)C [Compound 64]
22 | < 100 µM | O=C(O)Cn1c2cc(-c3ccccc3)ccc2c(=O)c2ccc(Cl)c(Cl)c21 [Compound 65]
